The values below come from ChEMBL document CHEMBL5223091, “Targeting the Mitotic Kinesin KIF18A in Chromosomally Unstable Cancers: Hit Optimization Toward an In Vivo Chemical Probe” (J Med Chem, 2022).

Data set [1] can be described thus: Plasma concentration in CD-1 mouse at 100 mg/kg, po measured after 24 hrs. The format is ADME, organism-based.
The test system of the next data set is OVCAR-3. Kind of data set: Antiproliferative activity against human OVCAR-3 cells by nuclear count assay. The data set is classed as functional, cell-based.
A short description of data set [2]: Kinetic solubility of compound at pH 2. The data set is classed as physicochemical. The note with it: buffer, read-out: Kinetic_solubility.
Data set [3] can be described thus: Cmax in CD-1 mouse xenografted with human OVCAR-3 cells at 100 mg/kg, po by LC-MS/MS analysis. The format is ADME, organism-based. The arrangement: dose 100 mg/kg, route po. As to conditions: in vivo. A general note: Xenograft models place foreign cells or tissue in a host animal.
The nature of data set [4]: Plasma concentration in CD-1 mouse xenografted with human OVCAR-3 cells at 100 mg/kg, po measured after 8 hrs. The format is ADME, organism-based.
Data set [5] in a line: Unbound fraction in CD-1 mouse plasma xenografted with human OVCAR-3 cells at 100 mg/kg, ip by LC-MS/MS analysis. The format is ADME, organism-based.
A short description of data set [6]: Cmax in CD-1 mouse xenografted with human OVCAR-3 cells at 100 mg/kg, ip by LC-MS/MS analysis. The data set is classed as ADME, organism-based. Also noted: dose 100 mg/kg, route ip. As to conditions: in vivo.
Another data set deals with MDA-MB-157. The data set can be described thus: Induction of mitotic arrest in TP53 mutant human MDA-MB-157 cells assessed as multipolar spindle arrays by measuring pericentriolar material incubated for 24 hrs by mitotic index assay. The format is functional, cell-based. The note with it: MDA-MB-157, 24 h.
Data set [7] in a line: Clearance in CD-1 mouse at 1 mg/kg, iv and 10 mg/kg, po. The data set is classed as ADME, organism-based. As to conditions: in vivo.
Data set [8] has as its target T1, Kinesin-like protein KIF18A (Homo sapiens, UniProt Q8NI77).
T1 sequence (Q8NI77 whole entry): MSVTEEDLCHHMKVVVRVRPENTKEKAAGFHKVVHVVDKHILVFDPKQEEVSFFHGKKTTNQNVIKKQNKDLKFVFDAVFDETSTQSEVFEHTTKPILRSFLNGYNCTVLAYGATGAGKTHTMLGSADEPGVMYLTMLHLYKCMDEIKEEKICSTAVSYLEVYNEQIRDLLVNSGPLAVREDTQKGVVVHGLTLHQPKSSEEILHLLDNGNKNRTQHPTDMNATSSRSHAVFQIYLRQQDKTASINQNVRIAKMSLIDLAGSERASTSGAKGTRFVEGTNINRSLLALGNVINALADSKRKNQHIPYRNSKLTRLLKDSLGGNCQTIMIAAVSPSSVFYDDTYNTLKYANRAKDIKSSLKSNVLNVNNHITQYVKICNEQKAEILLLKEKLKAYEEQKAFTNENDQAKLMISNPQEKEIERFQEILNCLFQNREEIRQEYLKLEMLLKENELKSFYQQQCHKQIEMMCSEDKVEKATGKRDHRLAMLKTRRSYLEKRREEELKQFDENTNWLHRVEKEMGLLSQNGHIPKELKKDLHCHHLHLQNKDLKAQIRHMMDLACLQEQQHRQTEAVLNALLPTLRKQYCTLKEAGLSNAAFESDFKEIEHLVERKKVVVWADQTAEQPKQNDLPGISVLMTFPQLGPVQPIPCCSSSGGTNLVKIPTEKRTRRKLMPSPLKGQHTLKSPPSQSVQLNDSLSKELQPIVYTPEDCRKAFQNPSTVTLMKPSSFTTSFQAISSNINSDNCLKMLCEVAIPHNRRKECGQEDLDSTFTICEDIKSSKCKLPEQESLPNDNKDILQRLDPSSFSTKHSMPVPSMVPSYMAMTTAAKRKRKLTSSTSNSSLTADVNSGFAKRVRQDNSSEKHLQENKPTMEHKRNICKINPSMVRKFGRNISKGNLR
The data set can be described thus: Inhibition of recombinant His-tagged human KIF18A (1 to 467 residues) expressed in Trichoplusia ni insect cells assessed as inhibition of microtubule-stimulated ATPase activity preincubated for 30 mins followed by ATP addition and further incubated for 15 mins by ADP-Glo reagent based assay. The arrangement: species or system Insect cell. For orientation: ADP-Glo turns the ADP formed in a reaction into a luminescent signal.

Data set [9] can be described thus: Metabolic stability in mouse liver microsomes assessed as intrinsic clearance at 0.5 uM incubated upto 40 mins by LCMS analysis. The data set is classed as ADME, Microsome. The note with it: read-out: CLH. In general terms: Liver microsomes are a subcellular fraction often used to study metabolism.
Data set [10] in a line: AUC (0 to 24 hrs) in CD-1 mouse xenografted with human OVCAR-3 cells at 100 mg/kg, po by LC-MS/MS analysis. The format is ADME, organism-based. The arrangement: dose 100 mg/kg, route po. The note with it: in vivo.
Data set [11] can be described thus: Drug uptake in CD-1 mouse xenografted with human OVCAR-3 cells measured in tumor at 100 mg/kg, po measured after 8 hrs. The data set is classed as ADME, organism-based, Neoplasm. The note with it: read-out: Drug uptake.
Data set [12] is described as follows: Half life in CD-1 mouse at 1 mg/kg, iv and 10 mg/kg, po. The format is ADME, organism-based. The note with it: in vivo.
Data set [13] can be described thus: Kinetic solubility of compound in FaSSIF. The data set is classed as ADME. The note with it: read-out: Kinetic_solubility.

pEC50, pIC50: −log10 of the molar value. In brackets after ≈: the same amount, converted by molar mass.

As a reminder, the pEC50 is −log10 of the EC50, conventionally taken in molar units. What is called Cmax is the peak of the concentration-time curve. As a reminder, the fraction unbound is the share of the substance not bound to proteins or other matrix. The low end stands for extensive binding, the high end for weak binding. What is called pIC50 is −log10 of the IC50, conventionally taken in molar units. For orientation: AUC(0-t) means the area under the concentration-time curve up to a stated or last time point. Read a high AUC(0-t) as high exposure. The term half-life denotes the time in which the quantity being followed falls by half. In turn, `CC(C)(C)NS(=O)(=O)c1cccc(NC(=O)c2ncc(NS(C)(=O)=O)nc2N2CCC3(CC2)CC3)n1` showed a concentration at 24 h in data set [1] of 0.03 µM. Further, the negative logarithm of the EC50 (pEC50) in the data set with OVCAR-3 is 7.49. Besides, the figures for the solubility kinetic in data set [2] and in data set [13] were 500 µM (≈ 269 µg/mL) and 209 µM (≈ 112 µg/mL), respectively. For the same compound, the Cmax in [3] was 6.1 µM; in data set [6], 22.6 µM. In addition, the concentration at 8 h worked out at 5.7 µM in data set [4] and 17.5 µM in data set [11]. The same compound showed a free fraction (fraction unbound) in [5] of 0.022. Further, the negative-log IC50 (pIC50) with MDA-MB-157 is 7.49; in data set [8], 7.02. Also, in data set [7], the CL amounted to 23.3 mL/min/kg. In addition, the microsomal CLint at 0.5 µM in data set [9] worked out at 64 µL/min/mg. The same compound displayed an AUC(0-t) in [10] of 25.7 µM·h. For the same compound, in [12], the half-life was 1.7 h.
